A short description of series [1]: Microsomal stability (intrinsic clearance), human liver microsomes. Set-up: microsomal CLint: dose or concentration left out as unconfirmed. The format is in vitro ADME. The note with it: for microsomal CLint: human, liver microsomes, pH 7.4, human liver microsomes. An excerpt: (§1) A microsomal stability assay is used to measure in vitro clearance (Clint). The assay involves measuring the rate of disappearance of a compound due to its intrinsic attitude to be metabolized (“intrinsic” meaning that the disappearance is not affected by other properties like permeability, binding etc. that play a role when quantifying in vivo clearance). The microsomal stability (intrinsic clearance, Clint) and thus metabolic stability is generally given as μl/min/mg protein. It can be visualized as the volume of solution that 1 mg of microsomes is able to clear of the compound in one minute.
(§2) A Tecan Genesis workstation (RSP 150/8) was used for to perform the microsomal incubations. Analysis was carried out using a Waters ACQUITY UPLC system coupled to an ABSciex API3000 mass spectrometer. Data analysis was performed using Assay Explorer (Symyx).
(§3) Mobile phases: A=0.1% formic acid in water; B=acetonitrile
(§4) Flow rate: 0.750 mL/min; Detection: ESI, MRM; Injection: 10 μL; Column temperature: 50° C.
(§5) Potassium phosphate buffer: 0.05 M potassium phosphate buffer pH 7.4 containing 1 mM MgCl2 NADPH (nicotinamide adenine dinucleotide phosphate): 22.5 mg NADPH-Na4 in 1.8 ml potassium phosphate buffer Acetonitrile: 50 Vol % acetonitrile (1 volume acetonitrile, 1 volume water) DMSO: 20 Vol % DMSO in water Stock solution of 20 mg/ml human or mouse liver microsomes (protein)/ml in phosphate buffer Stock solution of 10 mM compound in 100% DMSO

The target of series [2] is T1, Human recombinant His-tagged PFKFB3 (Homo sapiens, UniProt Q16875).
T1 construct: His; made in house
T1 sequence (Q16875 whole entry): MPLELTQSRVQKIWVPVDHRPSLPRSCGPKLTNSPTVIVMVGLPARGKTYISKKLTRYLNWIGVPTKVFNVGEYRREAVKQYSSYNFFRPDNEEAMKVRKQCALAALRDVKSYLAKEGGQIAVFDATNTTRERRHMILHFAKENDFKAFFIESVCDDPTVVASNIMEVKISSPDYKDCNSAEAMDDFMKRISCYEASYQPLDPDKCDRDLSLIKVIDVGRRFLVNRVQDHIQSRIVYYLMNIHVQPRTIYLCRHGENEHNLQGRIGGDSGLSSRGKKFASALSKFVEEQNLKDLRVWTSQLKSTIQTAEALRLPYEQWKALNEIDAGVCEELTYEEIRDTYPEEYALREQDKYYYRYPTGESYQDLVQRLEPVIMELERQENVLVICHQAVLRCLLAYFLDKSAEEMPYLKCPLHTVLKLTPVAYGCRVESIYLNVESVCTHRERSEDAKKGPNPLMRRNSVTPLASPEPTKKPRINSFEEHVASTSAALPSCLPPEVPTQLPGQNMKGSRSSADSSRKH
The series can be described thus: PFKFB3 IC50 determination assay (modified ADP-Glo in vitro kinase assay). The note with it: ATP 20 μM, fructose-6-phosphate 2 μM, 2 h, rt. The format is biochemical. As to the method: In vitro kinase assay used to determine IC50 values for tested inhibitors is based on a modified ADP-Glo™ system (Promega) and consists of two parts:
1. Kinase reaction—performed in optimized conditions. At this step PFKFB3 phosphorylates its substrate fructose-6-phosphate using ATP as a source of phosphate to produce fructose-2,6-bisphosphate and ADP. Reaction is performed at Km values for ATP and substrate using optimized buffer composition and time of the reaction. Human recombinant His-tagged PFKFB3 (PFKFB3 BATCH II SEC) with confirmed activity is produced and purified in-house. 2. Detection of ADP as a product of the reaction using ADP-Glo™ system. This part is conducted by using the commercially available kit ADP-Glo™ Kinase Assay (Promega, cat. No# V9103) according to manufacturer's instruction, modified by 5× dilutions of assay reagents (both ADP-Glo™ Reagent and Kinase Detection Solution). Reproducibility and reliability of this modification is confirmed in an optimization process.
Test compounds are dissolved in DMSO and then transferred to the V-bottom 96-well plate. For IC50 determination ten 10× serial dilutions starting from 100 μM are prepared.
Two mixes are prepared on ice: Mix 1—containing appropriate kinase amount in 2× reaction buffer (100 mM TRIS pH 8.0) and Mix 2—containing 2.31× concentrated substrate (Fructose-6-phosphate) and ATP in MilliQ water. 15 μL per well of Mix 1 is transferred to assay wells of 96-well white plate. Next, 2 μl of 15× concentrated test compound in DMSO is added to Mix 1 for 20 min pre-incubation, followed by addition of Mix 2 (13 μl/well). Total reaction volume is 30 μL per well. Samples are tested in duplicates. Final concentration of DMSO in the reaction is 6.7%. Conditions needed for performing PFKFB3 (PFKFB3 BATCH II SEC) in vitro kinase assay are given below:
This protocol is based on Technical Bulletin, ADP-Glo™ Kinase Assay (Promega) and is adapted to 96-well plate containing 30 μL reaction mixture:
30 μL of 5× diluted ADP-Glo™ Reagent is added to each well of 96-well plate containing 30 μL of reaction mixture. The plate is incubated for 90 minutes on a shaker at rt. 60 μL of 5× diluted Kinase Detection Solution is added to each well of 96-well plate containing 60 μL of the solution (ratio of kinase reaction volume to ADP-Glo™ Reagent volume to Kinase Detection Solution volume is maintained at 1:1:2). Plate is incubated for 40 minutes on a shaker at rt, protected from light. Luminescence is measured in the plate reader Synergy 2 (BioTek).
Luminescent readouts for compounds tested in 10 concentrations (routinely from 100 μM to […], […] serial dilutions) in duplicates, as well as for positive control, are first normalized to no-substrate negative control by its subtraction. In the next step, % of normalized positive control is calculated for each data point and plotted against test compound concentration:
% of control—percent of positive control normalized to no-substrate negative control Lumcpd—luminescence of test compound Lumneg—luminescence of no-substrate negative control Lumpos—luminescence of positive control
IC50 parameter is determined by the GraphPad Prism 5.0 software [log(inhibitor) vs. response—Variable slope (four parameters)].

Series [3] is described as follows: Microsomal stability (intrinsic clearance), mouse liver microsomes. The format is in vitro ADME. Details: microsomal CLint: dose or concentration left out as unconfirmed. The note with it: for microsomal CLint: mouse, liver microsomes, pH 7.4, mouse liver microsomes.
Text: as §1, §2, §3, §4, §5

A further series is described as follows: Kinetic solubility. The class given is physicochemical. Particulars: phosphate buffer 20 mM pH 7.4, 2% DMSO, room temperature; for solubility kinetic at 120 min: phosphate buffer, pH 7.4, aqueous buffer, kinetic from dmso stock. As to the method:
Kinetic solubility of compounds of the present invention were tested according the following procedure.
(a) Buffer Solution Phosphate Buffer 20 mM pH 7.4 is prepared using Sorensen Phosphate Buffer 0.2 M pH 7.4 (EMS) in a 1000 mL volumetric flask (b) 2% DMSO in Phosphate Buffer 20 mM pH 7.4 is prepared by using 1 mL Dimethylsulfoxide (Merck) and 49 ml Sorensen Phosphate Buffer 20 mM pH 7.4 (c) Acetonitrile/Methanole/Eluent A (1:1:2; v/v/v) is prepared by using 50 mL Acetonitrile (Merck), 50 mL Methanol (Merck) and 100 mL Eluent A (d) Eluent A is prepared by using 1 mL Formic Acid (Merck) and 999 mL Ultrapure water (e) Eluent B is prepared by using 1 mL Formic Acid (Merck) and 999 mL Acetonitrile (Merck) (f) Filtration plate: Millipore MultiScreen HTS HV (0.45 μm) 96 Well (Millipore)
98 μL buffer solution (a) is added into a well of a 96 well filtration plate (f). Then 2 μL of 10 mM test compound solution in DMSO (Remp tube) is added. The filtration plate is incubated at room temperature for 120 minutes while agitating at 250 rpm and centrifuged with the PP-Plate (g) as receiver plate below (2500 rpm, 3 min). The 50 μL of filtrate is taken from the receiver plate and mixed with 50 μL of 2% DMSO in buffer pH 7.4 solution (b) (dilution factor=2) in a HPLC Vial (i)+(j).
Standard is prepared by diluting 2 μL of the same 10 mM test compound solution (Remp tube) diluted with 198 μL Acetonitrile/Methanole/Eluent A (1:1:2; v/v/v) (c) to prepare a 100 μM standard solution in a HPLC Vial (i)+(j).
Column temperature: 37° C. Autosampler: room temperature (approx. 25° C.) Gradient programme: […]
Injection volume: 10 μL Wavelength: Suitable wavelength (maximum sensitivity) selected out of wavelength range of 190-400 nm using a DAD detector.
L [μg/mL]=(area sample*concentration standard*dilution factor sample)/(area standard*dilution factor standard)
S [mol/L]=[…] Calculation: […]

[4] abbreviates: human recombinant PFKFB3 25 nM, read-out: PFKFB IC50.
Where [5] appears, read: PFKFB IC50, human recombinant PFKFB3 25 nM.

Converted amounts (≈) assume the structure as drawn. Like-named read-outs stand apart in the source and are kept apart here.

For `Cn1cc([C@H](Nc2cc(-c3ccc4ccn(C)c4c3)c3nccnc3c2)c2cccnc2)cn1` (single isomer, unassigned) [Example 18], the intrinsic metabolic clearance (microsomal CLint) in series [1] was found to be 142 µL/min/mg; in series [3], 148 µL/min/mg. In addition, in series [2] (setting [4]), the IC50 came out at 6.5 nM. The same molecule came in with a kinetic solubility at 120 min in the series “Kinetic solubility” of 39 µM (≈ 17.4 µg/mL).
`Cn1cc([C@@H](Nc2cc(-c3ccc4ccn(C)c4c3)c3nccnc3c2)c2cncn2C)cn1` (single isomer, unassigned) [Example 12]: the half-maximal inhibitory concentration (IC50) in series [2] (setting [4]) was 44 nM.
Turning to `Cn1cc([C@H](Nc2cc(-c3ccc4ccn(C)c4c3)c3nccnc3c2)c2nccn2C)cn1` (single isomer, unassigned) [Example 14], the microsomal CLint was 57 µL/min/mg in series [1] and 67 µL/min/mg in series [3]. Moreover, the IC50 in series [2] (setting [4]) is 640 nM. Besides, the kinetic solubility at 120 min in “Kinetic solubility” is 36 µM (≈ 16.1 µg/mL).
Taken in the same sequence, the figures for `COc1ccc([C@H](Nc2cc(-c3ccc4ccn(C)c4c3)c3nccnc3c2)c2cccnc2)nn1` (single isomer, unassigned) [Example 6] were 174 µL/min/mg, 134 µL/min/mg, 900 nM and 18 µM (≈ 8.52 µg/mL).
Consider `COc1ccc([C@H](Nc2cc(-c3ccc4ccn(C)c4c3)c3nccnc3c2)c2cnnn2C)cn1` [Comparative Example 2, N—[(S)-(6-methoxypyridin-3-yl)(1-methyl-1H-1,2,3-triazol-5-yl)methyl]-8-(1-methyl-1H-indol-6-yl)quinoxalin-6-amine, reference compound], for which the microsomal CLint in series [1] is 113 µL/min/mg; in series [3], 134 µL/min/mg. Further, the IC50 in series [2] (setting [4]) was 3.5 nM. For the same molecule, the kinetic solubility at 120 min in the series “Kinetic solubility” is 22 µM (≈ 10.5 µg/mL).
For the molecule `Cn1ccc2ccc(-c3cc(NC(c4cccnc4)c4ccc(=O)[nH]n4)cc4nccnc34)cc21` (single isomer, unassigned) [Example 3], in series [1] (human liver microsomes), the “CLint Human” value is 61 μl/min/mg prot. Further, the IC50 in series [2] (setting [4]) stood at 180 nM. The “CLint Mouse” value in series [3] (mouse liver microsomes) is reported as 92 μl/min/mg prot. This molecule had a Kinetic solubility in the series “Kinetic solubility” (120 minutes) of 64 µM.
For the molecule `Cn1cc([C@@H](Nc2cc(-c3ccc4ccn(C)c4c3)c3nccnc3c2)c2cnnn2C)cn1` (single isomer, unassigned) [Example 9], the intrinsic clearance (microsomal CLint) in series [1] was determined as 52 µL/min/mg; in series [3], 146 µL/min/mg. Moreover, the half-maximal inhibitory concentration (IC50) in series [2] (setting [4]) was found to be 87 nM. This molecule displayed a kinetic solubility at 120 min in “Kinetic solubility” of 110 µM (≈ 49.4 µg/mL).
For `Cn1cc([C@@H](Nc2cc(-c3cnc4ccn(C)c4c3)c3nccnc3c2)c2cccnc2)cn1` (single isomer, unassigned) [Example 26], in that order: 67 µL/min/mg, 58 µL/min/mg, 1100 nM and 192 µM (≈ 85.7 µg/mL).
`Cn1ccc([C@H](Nc2cc(-c3ccc4ccn(C)c4c3)c3nccnc3c2)c2cnnn2C)n1` (single isomer, unassigned) [Example 30]: the microsomal CLint stood at 132 µL/min/mg in series [1] and 216 µL/min/mg in series [3]. Further, the 50% inhibitory concentration (IC50) in series [2] (setting [4]) was found to be 190 nM. The kinetic solubility at 120 min in “Kinetic solubility” turned out to be 96 µM (≈ 43.2 µg/mL).
As for `Cn1ccc([C@@H](Nc2cc(-c3ccc4ccn(C)c4c3)c3nccnc3c2)c2cnnn2C)n1` (single isomer, unassigned) [Example 29], the microsomal CLint in series [1] worked out at 51 µL/min/mg; in series [3], 69 µL/min/mg. The IC50 in series [2] (setting [4]) worked out at 22 nM. Besides, the solubility (kinetic) at 120 min in the series “Kinetic solubility” stood at 108 µM (≈ 48.5 µg/mL).
Take `COc1ccc(C(Nc2cc(-c3ccc4ccn(C)c4c3)c3nccnc3c2)c2cnnn2C)cn1` (racemic) [Comparative Example 1, [(6-Methoxy-pyridin-3-yl)-(3-methyl-3H-[1,2,3]triazol-4-yl)-methyl]-[8-(1-methyl-1H-indol-6-yl)-quinoxalin-6-yl]-amine, reference compound]: the intrinsic clearance (microsomal CLint) was 163 µL/min/mg in series [1] and 188 µL/min/mg in series [3]. In addition, the IC50 in series [2] (setting [5]) is 25 nM.
In the case of `CC(C)[C@H](Nc1cc(-c2ccc3ccn(C)c3c2)c2nccnc2c1)c1cccnc1` (single isomer, unassigned) [Example 21], the results for the microsomal CLint in series [1] and in series [3] were 366 µL/min/mg and 488 µL/min/mg, respectively. Besides, the IC50 in series [2] (setting [5]) is 23 nM. Further, the kinetic solubility at 120 min in “Kinetic solubility” turned out to be 7 µM (≈ 2.85 µg/mL).
Regarding `CC(C)[C@@H](Nc1cc(-c2ccc3ccn(C)c3c2)c2nccnc2c1)c1cccnc1` (single isomer, unassigned) [Example 20], the microsomal CLint in series [1] and in series [3] was over 500 µL/min/mg each time. The IC50 in series [2] (setting [4]) is 33 nM. For the same molecule, the solubility (kinetic) at 120 min in “Kinetic solubility” worked out at 6 µM (≈ 2.45 µg/mL).
Consider `Cn1cc([C@@H](Nc2cc(-c3ccc4ccn(C)c4c3)c3nccnc3c2)c2cccnc2)cn1` (single isomer, unassigned) [Example 17], for which the results for the microsomal CLint in series [1] and in series [3] were 172 µL/min/mg and 95 µL/min/mg, respectively. The half-inhibitory concentration (IC50) in series [2] (setting [4]) stood at 120 nM. Besides, in the series “Kinetic solubility”, the solubility (kinetic) at 120 min amounted to 42 µM (≈ 18.7 µg/mL).

Values taken from patent US20190256499A1, “SUBSTITUTED QUINOXALINE DERIVATIVES AS INHIBITORS OF PFKFB” (priority 2016, published 2019).
